Measured values as given in patent publication US20260258032A1, “TYROSINE KINASE 2 INHIBITORS AND USES THEREOF” (BIOGEN MA INC., priority 2022, published 2026).
Counter-ions that a name gives are not always drawn.

Tests used:
[1] = test system: JAK1 kinase activity on STAT3; experiment: pSTAT3 cell assay (MSD, TF1 cells, IL-6 stimulated); format: cell-based; settings: Homo sapiens, TF-1, compounds 1 hour, 30 ng/mL IL-6 for 15 minutes
Experimental: The inhibitory potency of compounds of the disclosure against the JAK1 kinase activity on STAT3 was evaluated using an MSD-platform plate-based assay format. TF1 cells natively expressing STAT3 and JAK1 were serum-starved to reduce background phosphorylation levels, then cells were treated with compounds of the disclosure for 1 hour with a 10-point four-fold dilution series starting at 10 μM. Cells were then stimulated with 30 ng/mL interleukin 6 (IL-6) for 15 minutes. Cells were lysed and pSTAT3 levels were quantitated using an MSD plate-based assay with anti-STAT3 antibodies. The data were normalized and the percent activity versus log concentration of compound was fitted with a 4-parameter logistic model to generate IC50 curves.

[2] = molecular target: T1, JH2 domain of human Tyk2 (Homo sapiens, UniProt P29597); experiment: JH2 biochemical assay (TR-FRET probe displacement); format: binding
T1 construct: 10×His-tagged TYK2 JH2 domain (amino acid 575-876)
How it was run: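 A probe-displacement TR-FRET readout: compounds, tested in 3-fold, 10-point dilutions starting at […], compete with 2 nM tracer for 2 nM His-tagged JH2 (residues 575-876) detected by 0.1 nM Tb-anti-His over 60 min. IC50 comes from 4-parameter fits of normalized 520/495 nm ratios.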

[3] = test system: Tyk2 kinase activity on STAT4; experiment: pSTAT4 cell assay (MSD, NK92 cells); format: cell-based; settings: compounds 1 hr
How it was run: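 Cells natively expressing STAT4 and Tyk2 (NK92) are serum-starved to lower background phosphorylation, exposed to compound for 1 hr over a 10-point four-fold series starting at 10 μM, and stimulated with 30 ng/mL IL2 for 15 minutes. Phosphorylation is quantified on MSD with anti-STAT4 antibodies.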

[4] = test system: JAK2 kinase activity on STAT5; experiment: pSTAT5 cell assay (MSD, TF1 cells, IL-3 stimulated); format: cell-based; settings: Homo sapiens, TF-1, compounds 1 hour, 30 ng/mL IL-3 for 15 minutes
Experimental: Compounds of the disclosure were assessed for their ability to inhibit the JAK2 kinase activity on STAT5 utilizing an MSD-platform plate-based assay format. TF1 cells natively expressing STAT5 and JAK2 were serum-starved to reduce background phosphorylation levels, then cells were treated with compounds of disclosure for 1 hour with a 10-point four-fold dilution series starting at 10 μM. Cells were then stimulated with 30 ng/mL IL-3 for 15 minutes. Cells were then lysed and pSTAT5 levels were quantitated using an MSD plate-based assay with anti-STAT5 antibodies. The data were normalized and the percent activity versus log concentration of compound was fitted with a 4-parameter logistic model to generate a curve and an IC50 value.

T1 sequence (P29597 575-876): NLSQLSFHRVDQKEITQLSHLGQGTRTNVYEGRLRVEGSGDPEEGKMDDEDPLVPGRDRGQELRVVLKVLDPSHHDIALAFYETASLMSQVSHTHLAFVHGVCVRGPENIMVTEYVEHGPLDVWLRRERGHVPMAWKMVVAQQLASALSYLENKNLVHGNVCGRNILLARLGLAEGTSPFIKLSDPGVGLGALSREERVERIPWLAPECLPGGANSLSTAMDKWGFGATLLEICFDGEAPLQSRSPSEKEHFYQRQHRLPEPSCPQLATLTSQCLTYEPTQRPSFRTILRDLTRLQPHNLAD

Row | Compound | IC50 [1] [nM] | IC50 ([2]; JH2 biochemical assay) [nM] | IC50 ([3]; stimulated 15 minutes) [nM] | IC50 [4] [nM] | IC50 ([2]; TR-FRET probe displacement, JH2 domain of human Tyk2) [nM] | IC50 ([3]; then stimulated 15 minutes) [nM]
1 | CC(=O)Nc1cc2c(cn1)C1(CC1)CN2c1cccc(C2COC2)n1 [Example 84, N-(1′-(6-(oxetan-3-yl)pyridin-2-yl)-1′,2′-dihydrospiro[cyclopropane-1,3′-pyrrolo[3,2-c]pyridin]-6′-yl)acetamide] | ≥ 1000 | 10 to 100 | ≥ 1000 | ≥ 1000 | – | –
2 | CC(=O)Nc1cc2c(cn1)C1(CC1)CN2c1ccnc(C(C)(C)F)n1 [Example 17, N-(1′-(2-(2-fluoropropan-2-yl)pyrimidin-4-yl)-1′,2′-dihydrospiro[cyclopropane-1,3′-pyrrolo[3,2-c]pyridin]-6′-yl)acetamide] | ≥ 1000 | ≤ 10 | 100 to 1000 | ≥ 1000 | – | –
3 | COC1(c2cccc(N3CC4(CC4)c4cnc(NC(C)=O)cc43)n2)COC1 [Example 87, N-(1′-(6-(3-methoxyoxetan-3-yl)pyridin-2-yl)-1′,2′-dihydrospiro[cyclopropane-1,3′-pyrrolo[3,2-c]pyridin]-6′-yl)acetamide] | ≥ 1000 | 10 to 100 | ≥ 1000 | ≥ 1000 | – | –
4 | CC(=O)Nc1cc2c(cn1)C1(CC1C)CN2c1ccnc(C(C)(F)F)n1 (stereo not shown) [Example 37, N-(1′-(2-(1,1-difluoroethyl)pyrimidin-4-yl)-2-methyl-1′,2′-dihydrospiro[cyclopropane-1,3′-pyrrolo[3,2-c]pyridin]-6′-yl)acetamide] | ≥ 1000 | 10 to 100 | ≥ 1000 | ≥ 1000 | – | –
5 | CC(=O)Nc1cc2c(cn1)C1(CC1)CN2c1cccc(C2CCOC2)n1 (stereo not shown) [Example 16, N-(1′-(6-(tetrahydrofuran-3-yl)pyridin-2-yl)-1′,2′-dihydrospiro[cyclopropane-1,3′-pyrrolo[3,2-c]pyridin]-6′-yl)acetamide] | ≥ 1000 | ≤ 10 | 10 to 100 | ≥ 1000 | – | –
6 | COc1cc(C(C)(F)F)nc(N2CC3(CC3)c3cnc(NC(C)=O)cc32)n1 [Example 2, N-(1′-(4-(1,1-difluoroethyl)-6-methoxypyrimidin-2-yl)-1′,2′-dihydrospiro[cyclopropane-1,3′-pyrrolo[3,2-c]pyridin]-6′-yl)acetamide] | ≥ 1000 | ≤ 10 | 100 to 1000 | ≥ 1000 | – | –
7 | Cc1cc(N2CC3(CC3)c3cnc(NC(N)=O)cc32)nc(C(C)(F)F)n1 [Example 308, 1-(1′-(2-(1,1-difluoroethyl)-6-methylpyrimidin-4-yl)-1′,2′-dihydrospiro[cyclopropane-1,3′-pyrrolo[3,2-c]pyridin]-6′-yl)urea] | ≥ 1000 | ≤ 10 | ≤ 10 | ≥ 1000 | – | –
8 | CNc1cc(N2CC3(CC3)c3cnc(NC(C)=O)cc32)nc(C(C)(F)F)n1 [Example 10, N-(1′-(2-(1,1-difluoroethyl)-6-(methylamino)pyrimidin-4-yl)-1′,2′-dihydrospiro[cyclopropane-1,3′-pyrrolo[3,2-c]pyridin]-6′-yl)acetamide] | ≥ 1000 | ≤ 10 | 10 to 100 | ≥ 1000 | – | –
9 | CC(=O)Nc1cc2c(cn1)C1(CC1)CN2c1nccc(C(C)(F)F)n1 [Example 14, N-(1′-(4-(1,1-difluoroethyl)pyrimidin-2-yl)-1′,2′-dihydrospiro[cyclopropane-1,3′-pyrrolo[3,2-c]pyridin]-6′-yl)acetamide] | ≥ 1000 | 10 to 100 | 100 to 1000 | ≥ 1000 | – | –
10 | CC(=O)Nc1cc2c(cn1)C(C)(C)CN2c1ccnc(C(C)(F)F)n1 [Example 38, N-(1-(2-(1,1-difluoroethyl)pyrimidin-4-yl)-3,3-dimethyl-2,3-dihydro-1H-pyrrolo[3,2-c]pyridin-6-yl)acetamide] | ≥ 1000 | ≥ 1000 | ≥ 1000 | ≥ 1000 | – | –
11 | CNC(=O)Nc1cc2c(cn1)C1(CC1)CN2c1cc(C)nc(C(C)(F)F)n1 [Example 307, 1-(1′-(2-(1,1-difluoroethyl)-6-methylpyrimidin-4-yl)-1′,2′-dihydrospiro[cyclopropane-1,3′-pyrrolo[3,2-c]pyridin]-6′-yl)-3-methylurea] | ≥ 1000 | ≤ 10 | 10 to 100 | ≥ 1000 | – | –
12 | CCc1cc(N2CC3(CC3)c3cnc(NC(C)=O)cc32)nc(C23COC(C2)C3)n1 [Example 322, N-(1′-(2-(2-oxabicyclo[2.1.1]hexan-4-yl)-6-ethylpyrimidin-4-yl)-1′,2′-dihydrospiro[cyclopropane-1,3′-pyrrolo[3,2-c]pyridin]-6′-yl)acetamide] | ≥ 1000 | ≤ 10 | 10 to 100 | ≥ 1000 | – | –
13 | CC(=O)Nc1cc2c(cn1)C(C)(C)CN2c1cccc(C(C)(F)F)n1 [Example 76, N-(1-(6-(1,1-difluoroethyl)pyridin-2-yl)-3,3-dimethyl-2,3-dihydro-1H-pyrrolo[3,2-c]pyridin-6-yl)acetamide trifluoroacetate] | ≥ 1000 | 100 to 1000 | ≥ 1000 | ≥ 1000 | – | –
14 | CC(=O)Nc1cc2c(cn1)CCN2c1cccc(C(C)(F)F)n1 [Example 32, N-(1-(6-(1,1-difluoroethyl)pyridin-2-yl)-2,3-dihydro-1H-pyrrolo[3,2-c]pyridin-6-yl)acetamide] | ≥ 1000 | 10 to 100 | ≥ 1000 | ≥ 1000 | – | –
15 | CC(=O)Nc1cc2c(cn1)C1(CCN(C)CC1)CN2c1ccnc(C(C)(F)F)n1 [Example 275, N-(1′-(2-(1,1-difluoroethyl)pyrimidin-4-yl)-1-methyl-1′,2′-dihydrospiro[piperidine-4,3′-pyrrolo[3,2-c]pyridin]-6′-yl)acetamide trifluoroacetate] | ≥ 1000 | ≥ 1000 | ≥ 1000 | ≥ 1000 | – | –
16 | CCn1cc(-c2cc(N3CC4(CC4)c4cnc(NC(C)=O)cc43)nc(C(C)(F)F)n2)cn1 [Example 384, N-(1′-(2-(1,1-difluoroethyl)-6-(1-ethyl-1H-pyrazol-4-yl)pyrimidin-4-yl)-1′,2′-dihydrospiro[cyclopropane-1,3′-pyrrolo[3,2-c]pyridin]-6′-yl)acetamide trifluoroacetate] | ≥ 1000 | – | – | ≥ 1000 | ≤ 10 | 10 to 100
17 | CC(=O)Nc1cc2c(cn1)C(C)(C)CN2c1nccc(C(C)(F)F)n1 [Example 39, N-(1-(4-(1,1-difluoroethyl)pyrimidin-2-yl)-3,3-dimethyl-2,3-dihydro-1H-pyrrolo[3,2-c]pyridin-6-yl)acetamide] | ≥ 1000 | ≥ 1000 | ≥ 1000 | ≥ 1000 | – | –
18 | CC(=O)Nc1cc2c(cn1)C1(CC1)CN2c1cccc(C2(F)COC2)n1 [Example 85, N-(1′-(6-(3-fluorooxetan-3-yl)pyridin-2-yl)-1′,2′-dihydrospiro[cyclopropane-1,3′-pyrrolo[3,2-c]pyridin]-6′-yl)acetamide] | ≥ 1000 | 10 to 100 | ≥ 1000 | ≥ 1000 | – | –
19 | CC(=O)Nc1cc2c(cn1)C1(CC1)CN2c1cccc(C(C)(F)F)n1 [Example 12, N-(1′-(6-(1,1-difluoroethyl)pyridin-2-yl)-1′,2′-dihydrospiro[cyclopropane-1,3′-pyrrolo[3,2-c]pyridin]-6′-yl)acetamide] | ≥ 1000 | ≤ 10 | 10 to 100 | ≥ 1000 | – | –
20 | CC(=O)Nc1cc2c(cn1)C1(CCN(C)CC1)CN2c1nccc(C(C)(F)F)n1 [Example 274, N-(1′-(4-(1,1-difluoroethyl)pyrimidin-2-yl)-1-methyl-1′,2′-dihydrospiro[piperidine-4,3′-pyrrolo[3,2-c]pyridin]-6′-yl)acetamide trifluorocetate] | ≥ 1000 | 100 to 1000 | ≥ 1000 | ≥ 1000 | – | –
21 | CCC(=O)Nc1cc2c(cn1)C1(CC1)CN2c1cccc(C(C)(F)F)n1 [Example 90, N-(1′-(6-(1,1-difluoroethyl)pyridin-2-yl)-1′,2′-dihydrospiro[cyclopropane-1,3′-pyrrolo[3,2-c]pyridin]-6′-yl)propionamide] | ≥ 1000 | ≤ 10 | 10 to 100 | ≥ 1000 | – | –
22 | CC(=O)Nc1cc2c(cn1)C1(CC1)CN2c1cc(C)nc(C(C)(F)F)n1 [Example 88, N-(1′-(2-(1,1-difluoroethyl)-6-methylpyrimidin-4-yl)-1′,2′-dihydrospiro[cyclopropane-1,3′-pyrrolo[3,2-c]pyridin]-6′-yl)acetamide] | ≥ 1000 | ≤ 10 | 10 to 100 | ≥ 1000 | – | –
